Measured values as given in paper PMC5510229, “BCAT1 controls metabolic reprogramming in activated human macrophages and is associated with inflammatory diseases” (Nature Communications, 2017).

System: collagen-induced arthritis (CIA)
Assay: Collagen-induced arthritis (CIA) in mice
Format: in vivo, DBA/1 mice
Source text: Figure 5 Orally administrated ERG240 reduced the severity of crescentic glomerulonephritis in rats and CIA in mice. (a) Glomerular crescents, serum creatinine, and proteinuria levels measured in vehicle and ERG240 treated rats at day 10 following induction of nephrotoxic nephritis. At least n=4 rats were used in each group. (b) Col1a1 immunofluorescence (IF) quantification (left panel), representative IF and Sirius red staining images (middle panel) and Col1a1 qRT-PCR (normalized to Hprt) 28 days following NTS injection. Original magnification, × 20, at least n=4 animals were used in each group. (c) Clinical progression of CIA measured by the Mean Arthritis Index in vehicle and ERG240-treated animals in both studies (prophylactic and therapeutic, upper panel; at least n=6 animals per group). Histological analysis of joints from representative whole paws scored for inflammation, pannus formation, cartilage damage and bone resorption (lower panel). Error bars are s.e.m. Either Mann–Whitney or Student’s t-test were used for significance. *** P<0.001, ** P<0.01, * P<0.05. Scale bars, 50 μm.
DBA/1 mice (6–8 weeks old from Harlan Sprague Dawley Inc.) were injected s.c. with 100 μg of bovine type II collagen emulsified in complete Freund’s adjuvant (Sigma). At day 21 following primary immunization, the mice were given a booster injection of 100 μg of bovine type II collagen emulsified in incomplete Freund’s adjuvant. The prophylactic arm of the study involved water-treated (vehicle control, n=6) and ERG240-treated (720 mg kg^−1, o.p., qdx5, 3 weeks, n=10) animals, while the therapeutic arm of the study involved water-treated (vehicle control, n=10) and ERG240-treated (1,000 mg kg^−1, o.p., qdx5, 4 weeks, n=10) animals. Parafin-embedded paws were sectioned at ∼5 μm. One slide from each paw was stained with hematoxylin and eosin (H&E) and served as a reference, while four additional slides were stained using antibodies against F4/80 (AbD Serotec). The expression of the above markers in the joints of the preserved CIA tissues was scored according to the following scale: 0=no staining; 1=minimal; 2=mild; 3=moderate; 4=marked; and 5=diffuse and severe staining (see Supplementary Methods for detailed histological evaluation of CIA tissues). Serum levels of TNF and RANKL were analysed using relevant ELISA kits from Biolegend (TNF-α) and Abcam (RANKL) according to the manufacturers’ instructions. Details for determining the presence of antibodies against type II collagen are provided in Supplementary Methods.
Clinical and histological evaluation methods in CIA
Development of arthritis was assessed ever y other da y and scored on a scale of 0-4 as follows: 0=no oedema or swelling, 1=slight oedema and er ythema restricted to the foot or ankle, 2=moderate to severe oedema and er ythema restricted to the foot or ankle, 3 =oedem a and erythema of the entire paw, and 4=maximum inflamed limb i nvolving multiple joints.
The maximal arthritic score or arthritic index (AI) per animal was 16 (cumulative for 4 limbs).Paw thickness was measured before termination of the experiment . […]
Histological evaluation of CIA t issues.
Dosing of the animals in the proph ylactic groups started on the da y of the booster injection (day 21), while dosing of the animals in the therapeutic groups started after arthritis was established (da y 26). Animals were scored for the presence of arthritis ever y other da y and weighed once a week. At the end of the study, sera were obtained b y cardiac puncture and paws were excised for histological examination (HistoTox Labs Inc). From each therap eutic group, three front and four hind paws were selected for histological an al ys is . Paws were fixed in 4% formalin and decalcified in formic acid. Parafin sections (8 µm) were stained with toluidine blue (T-blue). The sections were evaluated blindly and scored for inflammation, pannus infiltration, cartilage damage, and bone erosion according to scale shown here. […]

[1] = excised paws after completion of CIA

## CC(=O)C(C)CCC(=O)O (stereo not drawn) [ERG240]
CIA mice, ELISA
  serum Tnf levels: diminished levels
  serum Tnfsf11 (RANKL) levels: diminished levels
[1]
  decrease of bone erosion (paw histology): 86%
  decrease of cartilage degradation (paw histology): 74%
  decrease of inflammation (paw histology): 53%
  decrease of pannus formation (paw histology): 86%
Immunohistochemistry of excised paws
  F4/80+ macrophages in the joints: significant reduction
Only in the fore paws, therapeutic study
  joint oedema: significant decrease
oral, prophylactic 720 mg kg^−1, therapeutic 1000 mg kg^−1
  severity of CIA (Mean Arthritis Index): alleviates the severity of CIA
